# Values joined by “and” are separate entries in the source; they are usually repeats but may differ in a detail not shown here. Identical values can stand only once. Like-named read-outs stand apart in the source and are kept apart here.
# Legend:
# G. swidsinskii biofilm = type: cell-based, Gardnerella swidsinskii
# Procedure: (§1) Gardnerella spp. (see figures for strain specification) was resuspended in brain heart infusion broth supplemented with 2% (w/v) gelatin, 0.5% yeast extract (w/v), 0.1% starch (w/v) and 0.25% glucose (w/v) (sBHIG). Passaged strains were resuspended in unbuffered NYCB supplemented with 1% glucose (w/v) (sNYCB). The OD600 was set to 0.1 (approx. 10^7-10^8 CFU/mL) and the cell suspension was diluted 1:10 in growth medium as input for biofilm formation. A total of 200 μL of the respective bacterial suspensions was added to 96-well flat bottom plates (tissue-culture treated, Sigma-Aldrich). The biofilms were grown under anaerobic conditions at 37° C. for 40 to 72 hours, depending on the isolate. Subsequently, the supernatant was removed, and the biofilm was treated with antimicrobials dissolved in sBHIG (at pH 5 for treatment with PM-477 (H2B10), and unbuffered for treatment with antibiotics) in 100 μL and incubated anaerobically at 37° C. for another 24 hours. After the treatment, the biofilms were washed twice with 200 μL 1x PBS and dissolved by vigorous pipetting (40x up and down). Serial dilutions of the dissolved cells were spotted on chocolate agar plates. The plates were incubated anaerobically for two to three days and the minimum biofilm eradication concentration (MBEC) of the endolysin or the antibiotics in use were calculated.
# Gardnerella dominated biofilms covering the human vaginal epithelial cells are now generally considered as a hallmark of BV. Thus, it was tested how effective antibiotics and PM-477 (H2B10) are in penetrating and killing in vitro pre-formed, 40-72 h old biofilms of various Gardnerella strains.
# [1] = system: MDZ or MDZ-OH passaged Gardnerella strains grown as biofilm; assay: MBEC on biofilms of the six passaged strains, summary; type: cell-based, Gardnerella spp.; conditions: for Susceptibility of MDZ-passaged strains grown as biofilm (FIG. 4): 72 h pre-formed biofilms treated for 24 h; for MBEC, range over passaged strains: six strains passaged on MDZ or MDZ-OH, pre-formed biofilms, 24 h treatment
# Procedure: as §1
# passaged G. swidsinskii = assay: MIC on strains passaged with MDZ-OH; type: cell-based, Gardnerella swidsinskii; conditions: for MIC: Gardnerella swidsinskii, 48 h; for MIC passaged: 48 h incubation
# Procedure: The minimum inhibitory concentration (MIC), which is a standard measure of the activity of antimicrobials, was determined according to the Clinical and Laboratory Standards Institute protocol (2018) Methods for Antimicrobial Susceptibility Testing of Anaerobic Bacteria (Carpenter et al., 2018). […] Controls for growth in the absence of antimicrobials were also included. OD600 was recorded by a microplate reader (Tecan, Grodig, Austria) after incubation at 37° C. for 48 h or, for some fast-growing strains, after incubation for 24 h. Absence of growth was defined as OD600≤0.14. […] MIC readout and MBC99.5 spotting were performed after 72 h incubation for H2B10B11. MBC99.5 is the minimum concentration of an antibacterial agent that results in bacterial death of all cells in suspension up to a defined limit of detection, resulting in killing of at least 99.5% of bacteria.
# The final volume of the reaction was 100 µL and the reactions were performed in triplicate in 384-well plates. The OD600 was measured using a microplate reader (Tecan, Grodig, Austria) to generate timepoint 0 h baseline values. The reactions were incubated anaerobically for 24 h, then the OD600 was measured again, and the MIC was measured as the lowest concentration with OD600<0.14. […] This process was repeated for a maximum of 25 rounds. In each round, the input CFU/mL was determined by quantitative plating.
# The susceptibility of Gardnerella strains before and after 8 to 9-times passaging with sub-MIC concentrations of MZD or MDZ-OH is shown in Table 4 below. All MICs determined after 48 h of incubation.
# [2] = system: G. vaginalis (ATCC 14018); assay: Bactericidal effect in suspension by quantitative plating, wild type and MDZ-passaged; type: cell-based, Gardnerella vaginalis; conditions: for reduction of a suspension of 108 CFU/mL: 10 μg/mL, 1 h
# Procedure: Bacterial suspensions (OD600 of 0.1, corresponding to approximately 10^7-10^8 CFU/mL) were prepared by scraping the cells from confluently grown agar plates and diluting them into NYCB+10% HS, pH 5.5. Reactions were performed in triplicate by mixing ten μl of endolysin (200 μg/mL) with 90 μL bacterial suspension in the wells of a 96-well plate. Ten UL MES buffer without the endolysin was used as a control. […] Tenfold dilution series (10^−1 to 10^−6) of the cell reaction mixtures were prepared in NYCB+10% HS and 2 μL of each dilution were spotted onto Choc agar plates. After anaerobic incubation at 37° C. for 48 h, colonies were counted, CFU/mL calculated, and the log10 reduction compared to MES buffer treated control was determined.
# (§2) All MICs determined after 48 h of incubation.
# [3] = system: passaged G. vaginalis biofilm; assay: MBEC on biofilms of passaged strains; type: cell-based, Gardnerella vaginalis
# Procedure: as §1, §2
# [4] = system: passaged G. swidsinskii biofilm; assay: MBEC on biofilms of passaged strains; type: cell-based, Gardnerella swidsinskii
# Procedure: as §1, §2
# [5] = system: passaged G. piotii biofilm; assay: MBEC on biofilms of passaged strains; type: cell-based, Gardnerella piotii; conditions: G. piotii (UGent 18.01T) passaged with MDZ-OH
# Procedure: as §1, §2
# [6] = ancestor G. swidsinskii GS 9838-1, pre-formed biofilm
# [7] = ancestor G. swidsinskii UGent BV 7.1, pre-formed biofilm
# [8] = G. vaginalis (ATCC 14018T) passaged with MDZ
# [9] = G. vaginalis (UGent 09.07) passaged 8 times with MDZ-OH
# [10] = G. vaginalis (UGent BV50) passaged with MDZ-OH
# [11] = G. swidsinskii (GS 9838-1T) passaged with MDZ-OH
# [12] = G. swidsinskii (UGent BV 7.1) passaged with MDZ-OH
Molecule,MBEC (G. swidsinskii biofilm; [6]),MBEC (G. swidsinskii biofilm; [7]),Susceptibility of MDZ-passaged strains grown as biofilm (FIG. 4) [1],"MBEC, range over passaged strains [1]","MIC (passaged G. swidsinskii; read-out: MIC passaged, G. swidsinskii (GS 9838-1T) passaged with MDZ-OH, 48 h incubation)","MIC (passaged G. swidsinskii; read-out: MIC passaged, G. swidsinskii (UGent BV 7.1) passaged with MDZ-OH, 48 h incubation)","reduction compared to the buffer treated control ([2]; MDZ-passaged G. vaginalis (ATCC 14018), 2 mg/ml, 24 h)","loss in viability ([2]; MDZ-passaged G. vaginalis (ATCC 14018), up to 2 mg/ml, 1 and 5 hours)","MBEC passaged [3, 8]","MBEC passaged [3, 9]","MBEC passaged [3, 10]","MBEC passaged [4, 11]","MBEC passaged [4, 12]",MBEC passaged [5],"MBEC, range over passaged strains ([1]; listed as PM-477 (H2B10))",MIC passaged (passaged G. swidsinskii; [11]),MIC passaged (passaged G. swidsinskii; [12]),reduction of a suspension of 108 CFU/mL ([2]; MDZ-passaged G. vaginalis (ATCC 14018)),reduction of a suspension of 108 CFU/mL ([2]; ancestral G. vaginalis (ATCC 14018))
"Cc1ncc([N+](=O)[O-])n1CCO [MDZ, metronidazole]",32 µg/mL,32 µg/mL,resistant,> 2048 µg/mL,> 512 µg/mL,> 2050 µg/mL,2 log,without any loss in viability,>2048 µg/mL,>2048 µg/mL,>2048 µg/mL,>2048 µg/mL,>2048 µg/mL,>2048 µg/mL,–,–,–,–,–
"PM-477: genetically engineered recombinant Gardnerella-specific endolysin, amino acid sequence SEQ ID NO: 1, His-tag cleaved off (protein, His-tag cleaved off; H2B10) SKRGIDVSEWQGDIDFNAVKASGVEFVIIRAGYGIGCKDKWFEQNYRKAKTCGLDVGAYWYSYANSGFEAAEEAQSCVNMLSGKSFEYPVYFDLEEKSQLNRGRAFCDSLITGFCNKLESCGYYAGFYTSLSTANNLVSAHVRNRYALWIAQWNTHCSYQGSYGLWQYSSSGSVPGVAGRVDMDYAYVDYPSIIKNVGLNGYKNGGSYTAPQISSIDEVAREVINGDWGNGNERKQRLTSAGYDYASVQNKVNELLGVKAYRKSVDELAREVIRGTWGNGSTRKQRLTQAGYDYNAVQKRVNELL",<2 µg/mL,32 µg/mL,susceptible,–,–,–,–,–,2 to 8 µg/mL,2 to 4 µg/mL,1 to 8 µg/mL,2 µg/mL,2 µg/mL,<1 µg/mL,1 to 8 µg/mL and 1 to 4 µg/mL,0.06 µg/mL,0.06 µg/mL,2.8 log units,3.0 log units
